Active and inactive are the calls of the source. The rule behind the calls is not given here.
Key:
Test in all cases: PubChem AID 504934
[1] = biological target: Nuclear receptor ROR-gamma (Homo sapiens) (UniProt P51449); details: nuclear receptor panel Gal4 luciferase reporter, RORg, at 10 µM
[2] = test system: TR2; details: nuclear receptor panel Gal4 luciferase reporter, at 10 µM
[3] = test system: VP16 Control Plasmid; details: nuclear receptor panel Gal4 luciferase reporter, at 10 µM
[4] = biological target: Peroxisome proliferator-activated receptor gamma (Homo sapiens) (UniProt P37231); details: nuclear receptor panel Gal4 luciferase reporter, PPARg, at 10 µM
Peroxisome proliferator-activated receptor gamma (Homo sapiens), sequence (P37231 whole entry, looked up, the tested form may be a part): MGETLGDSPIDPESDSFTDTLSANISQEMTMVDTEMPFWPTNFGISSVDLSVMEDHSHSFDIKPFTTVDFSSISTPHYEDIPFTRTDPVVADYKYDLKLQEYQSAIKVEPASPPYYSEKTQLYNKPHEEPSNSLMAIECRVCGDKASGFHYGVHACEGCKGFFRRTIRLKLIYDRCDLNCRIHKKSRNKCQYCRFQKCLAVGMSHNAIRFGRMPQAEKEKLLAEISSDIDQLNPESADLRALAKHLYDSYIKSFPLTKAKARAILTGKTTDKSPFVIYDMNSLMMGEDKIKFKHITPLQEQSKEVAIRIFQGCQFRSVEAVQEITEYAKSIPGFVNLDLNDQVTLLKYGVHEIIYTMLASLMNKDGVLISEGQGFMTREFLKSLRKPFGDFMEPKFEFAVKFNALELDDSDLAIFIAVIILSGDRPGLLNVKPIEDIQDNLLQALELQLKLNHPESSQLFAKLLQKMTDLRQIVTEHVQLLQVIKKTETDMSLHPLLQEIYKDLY

Nuclear receptor ROR-gamma (Homo sapiens), sequence (P51449 whole entry, looked up, the tested form may be a part): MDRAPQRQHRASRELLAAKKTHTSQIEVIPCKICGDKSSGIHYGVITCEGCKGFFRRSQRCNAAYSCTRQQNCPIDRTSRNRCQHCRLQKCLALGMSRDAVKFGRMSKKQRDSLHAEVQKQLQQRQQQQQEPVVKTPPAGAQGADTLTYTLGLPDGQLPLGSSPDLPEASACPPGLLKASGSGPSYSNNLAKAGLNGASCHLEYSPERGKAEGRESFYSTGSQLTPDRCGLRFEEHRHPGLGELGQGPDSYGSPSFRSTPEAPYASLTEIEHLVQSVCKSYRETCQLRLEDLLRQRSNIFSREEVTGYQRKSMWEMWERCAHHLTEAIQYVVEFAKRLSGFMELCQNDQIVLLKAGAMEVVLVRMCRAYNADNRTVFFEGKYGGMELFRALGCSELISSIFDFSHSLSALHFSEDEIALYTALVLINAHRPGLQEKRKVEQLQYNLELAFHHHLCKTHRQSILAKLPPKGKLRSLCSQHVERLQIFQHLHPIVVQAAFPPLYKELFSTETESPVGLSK

Question: With `O=c1cc(N2CCN(c3cccc(Cl)c3)CC2)[nH]c(=O)n1C1CCCCC1` as the compound, how does the fold change [1] read?
Answer: 0.52

Question: What about the fold change [2] of the same compound?
Answer: 0.63

Question: And the fold change [3]?
Answer: 0.82 (inactive)

Question: What about the fold change [4] of the same compound?
Answer: 0.86 (inactive)

Reference: PubChem BioAssay AID504934 (The Scripps Research Institute Molecular Screening Center, 2011)
